Measured values published in US20050267073A1, “Triheterocyclic compounds, compositions, and methods for treating cancer or viral diseases” (priority 2004, published 2005).
Where a name gives a salt, the structure may show the parent alone. Read-outs that look alike come from different tables or passages of the source.

Columns and labels:
[1] = tested on: H1299 human non-small cell lung cancer cells; experiment: Cell viability by cellular ATP levels (ViaLight), H1299 cells; assay type: cell-based; details: H1299, NSCLC; ATP levels 72 h post-treatment compared to untreated cells; read-out: IC50 of Compound 1 tartrate
Description: (§1) […]. […] […]. The total dimethyl sulfoxide on the cells was 1%. […] […].
(§2) As depicted in Table 4, these compounds were efficient in decreasing cellular ATP levels in HI 299 and C33A cancer cell lines. Nevertheless, these compounds are believed to have utility in the in vivo methods of the invention, i.e., treatment and prevention of cancer and viral infections, respectively. It should be noted that, although this cell-based assay is believed to be indicative of anti-oncogenic activity in vivo, it is not the only useful assay for evaluating the anti-oncogenic activity of Triheterocyclic Compounds of the invention. In addition, the anti-viral and other biological activity of compounds of the invention can be determined and evaluated in other assay systems known to the skilled artisan.

[2] = Shelf stability (precipitation) of formulation; assay type: physicochemical; details: 0.6 mg/mL in 9.6% polyethylene glycol 300, 0.4% polysorbate 20 and 5% dextrose; listed as Compound 1 Tartrate Salt
Procedure: To determine whether a compound is soluble in a solution, the solution was filtered on 0.2 μM polytetrafluoroethylene filters (Whatman Inc. Clifton, N.J., USA) and the compound concentration in the filtrate was measured by LC/MS and compared to the expected concentration.

[3] = tested on: C33A cervical carcinoma cells; experiment: cells; assay type: cell-based; details: C-33A, Cervix; ATP levels 72 h post-treatment compared to untreated cells; read-out: IC50 of Compound 1 tartrate
Description: as §1, §2

[4] = assay type: in vivo, CB17 SCID/SCID mice; details: 4.5 mg/kg IV once daily for five days, FIG. 2
Procedure: Treatments started on day fourteen after C33A cells transplantation. […]. The negative control group was treated with vehicle alone. […].
Observation continued for 40 days after initial tumor implantation.

[5] = tested on: C33A human cervical cancer cells; details: for reduction in tumor growth compared to vehicle only: 4.5 mg/kg IV once a day for five days, C33A tumors in SCID mice, FIG. 3; for T/C value: 4.5 mg/kg IV once daily for five days
Procedure: The resultant mice are a model for a human having cervical cancer.
The C33A human cervical cancer cells were maintained in RPMI (Hyclone, Utah, USA) supplemented with 10% inactivated fetal bovine serum (Bio-Whittaker, MD, USA) and 1% penicillin-streptomycin-L-Glutamine (Gibco, N.Y., USA), under 5% CO2 at 37° C., and passaged twice a week. The cells were grown at a confluency lower than 70% and than collected with Trypsin (Bio-Whittaker, MD, USA). The cells were then centrifuged and washed twice using phosphate buffered saline solution (PBS) and resuspended in PBS at 2×10^6 cells per 100 μl.
C33A cells were injected subcutaneously into the flank of female CB17 SCID/SCID mice. Each mouse was inoculated with a suspension of 2×10^6 tumors cells per 150 μl on day zero.
Treatments started on day fourteen after C33A cells transplantation. […] The negative control group was treated with vehicle alone. […] The positive control group was treated once every 3 days for five times with cisplatin (Sigma, St. Louis, Mo., USA) at a dose of 4 mg/kg. Cisplatin was formulated in PBS on each day of the injection and was administered IP in an injection volume of 80 μl.
The mice were weighed and the tumors measured on day 13 and every 2 days after treatment commenced. Observation continued for 40 days after initial tumor implantation. The changes in body weight and in the calculated tumor volume were plotted.

[6] = tested on: MCF-7 human breast cancer cell line; details: read-out: IC50 of Compound 1 tartrate; MCF-7, Breast; ATP levels 72 h post-treatment compared to untreated cells
Procedure: (§3) The cells lines were plated in 96-well microtiter plates (PerkinElmer Life Sciences Inc, Boston, Mass., USA) at a confluency that allowed them to reach confluence after 4 days of growth. […] The total dimethyl sulfoxide on the cells was 1%. After 3 days of incubation the ATP levels in the cells were quantified using a luminescent ViaLight detection system (Bio-Whittaker, MD, USA).

[7] = tested on: ADR-RES human breast cancer cell line; details: read-out: IC50 of Compound 1 tartrate; NCI/ADR-RES, Breast (Mutli-drug resistant); ATP levels 72 h post-treatment compared to untreated cells
Procedure: as §3

[8] = tested on: HMEC normal mammary epithelial cells
Procedure: as §3

[9] = tested on: PC-3 human prostatic carcinoma cell line; details: read-out: IC50 of Compound 1 tartrate; PC-3, Prostate; ATP levels 72 h post-treatment compared to untreated cells
Procedure: as §3

[10] = tested on: SW-480 human adenocarcinoma cell line; details: read-out: IC50 of Compound 1 tartrate; SW-480, Colorectal; ATP levels 72 h post-treatment compared to untreated cells
Procedure: as §3

[11] = tested on: H460 non-small cell lung cancer cell line; details: read-out: IC50 of Compound 1 tartrate; H460, NSCLC; ATP levels 72 h post-treatment compared to untreated cells
Procedure: as §3

[12] = tested on: A549 human lung carcinoma cell line; details: read-out: IC50 of Compound 1 tartrate; A549, NSCLC; ATP levels 72 h post-treatment compared to untreated cells
Procedure: as §3

[13] = tested on: B16-F1 mouse melanoma cell line; details: read-out: IC50 of Compound 1 tartrate; B16-F1, Murine Melanoma; ATP levels 72 h post-treatment compared to untreated cells
Procedure: as §3

[14] = tested on: cancer cell lines H1299 and C33A, normal cell lines HMEC and MRC-5; details: 0.5 μM, 72 hours after treatment; H1299 and C33A vs HMEC and MRC-5; FIG. 1
Procedure: as §3

[15] = tested on: OVCAR-3 human ovarian carcinoma cell line; details: read-out: IC50 of Compound 1 tartrate; OVCAR-3, Ovary; ATP levels 72 h post-treatment compared to untreated cells
Procedure: as §3

COC1=CC(c2cc3ccccc3[nH]2)=N/C1=C\c1[nH]c(C)cc1C [Compound 1 tartrate]
IC50 [1]: 500 nM
precipitation of formulation [2]: tends to precipitate one hour after its preparation
IC50 [3]: 200 nM
body weight change [4]: no significant changes in body weight
body weight change ([4]; listed as Compound 1 Tartrate): non-significant weight loss
reduction in tumor growth compared to vehicle only [5]: statistically significant (p<0.0001) reduction in tumor growth
reduction in tumor growth compared to vehicle only ([5]; listed as Compound 1 Tartrate): significantly reduces the human cervical tumors
T/C value ([5]; day 36): 14%
T/C value ([5]; day 39): 22%
average tumor size versus vehicle only ([5]; days 36 and 39, 4.5 mg/kg): significantly (p<0.001) smaller tumors
IC50 [6]: 600 nM
IC50 [7]: 400 nM
IC50 ([8]; read-out: IC50 of Compound 1 tartrate, HMEC, Normal Breast, ATP levels 72 h post-treatment compared to untreated cells): 4000 nM
efficacy in decreasing cellular ATP levels in cancer cell lines versus HMEC normal cell line ([8]; ten cancer cell lines vs HMEC, various concentrations): greater efficacy in decreasing cellular ATP levels
IC50 [9]: 200 nM
IC50 [10]: 200 nM
IC50 [11]: 300 nM
IC50 [12]: 400 nM
IC50 [13]: 60 nM
lowering of ATP levels in cancer cell lines compared with normal cell lines [14]: significantly more effective at lowering ATP levels
IC50 [15]: 200 nM
